Article PMC11732138, “Gold complex compounds that inhibit drug-resistant Staphylococcus aureus by targeting thioredoxin reductase” (Frontiers in Antibiotics, 2023)
Where two headings read alike, the source gives them in different places.

Columns and labels:
[1] = system: renal proximal tubule epithelial cells; experiment: Renal proximal tubule epithelial cell toxicity; type: cell-based, human; settings: renal proximal tubule epithelial cells
S. aureus MW2 [2] = experiment: Time to kill assay; type: cell-based, Staphylococcus aureus; settings: 4 × MIC, 4 h; bactericidal = 3-log10-CFU/mL reduction
Experimental: S. aureus MW2, a methicillin-resistant S. aureus (MRSA) isolate, was used to determine the bacteriostatic/bactericidal properties of test compounds, as previously described ([Rajamuthiah et al., 2015]). Assays were carried out as 2 biological replicates with n=3 for each in 24 well plates (BD Biosciences, Franklin Lakes, NJ, USA). Briefly, S. aureus MW2 cells were streaked on TSB agar from a frozen glycerol stock, and after overnight incubation, a single colony was inoculated on 2 mL of TSB and incubated at 37°C with agitation. The overnight culture of S. aureus MW2 was centrifuged at 4000 g for 5 min and then washed twice with PBS and collected through centrifuged at 4000 g for 5 min. The PBS was discarded and cells were suspended in TSB and aliquoted into a 24-well plate at a density of 10^8 cells/mL as a 1 mL volume. Test compounds were added such that the final concentration was 4 × MIC, and the cultures were incubated at 37°C with agitation. At designated time intervals, 5 μL aliquots from each test condition were serially diluted in TSB and plated onto TSA (BD Biosciences, Franklin Lakes, NJ, USA). CFUs were enumerated after overnight incubation at 35°C, and data were plotted using GraphPad Prism 9.0 (San Diego, CA, USA) to report the means and standard deviation of growth as measured by CFU/mL.

human erythrocytes = settings: tested range 256 to 0.125 μg/mL
Experimental: The plate was incubated for 1h at 37°C. After incubation, the plate was centrifuged at 1000 g for 5 min. Then, 100 µL of supernatant was transferred to a fresh 96-well microtiter well plate and the OD was measured at 540 nm. The assay was conducted in triplicate and the mean and SD values were reported.

hERG channel [3] = target: T1, hERG channel (Homo sapiens, UniProt Q12809); experiment: hERG measurement (QPatch HTX patch clamp)
T1 sequence (Q12809 whole entry): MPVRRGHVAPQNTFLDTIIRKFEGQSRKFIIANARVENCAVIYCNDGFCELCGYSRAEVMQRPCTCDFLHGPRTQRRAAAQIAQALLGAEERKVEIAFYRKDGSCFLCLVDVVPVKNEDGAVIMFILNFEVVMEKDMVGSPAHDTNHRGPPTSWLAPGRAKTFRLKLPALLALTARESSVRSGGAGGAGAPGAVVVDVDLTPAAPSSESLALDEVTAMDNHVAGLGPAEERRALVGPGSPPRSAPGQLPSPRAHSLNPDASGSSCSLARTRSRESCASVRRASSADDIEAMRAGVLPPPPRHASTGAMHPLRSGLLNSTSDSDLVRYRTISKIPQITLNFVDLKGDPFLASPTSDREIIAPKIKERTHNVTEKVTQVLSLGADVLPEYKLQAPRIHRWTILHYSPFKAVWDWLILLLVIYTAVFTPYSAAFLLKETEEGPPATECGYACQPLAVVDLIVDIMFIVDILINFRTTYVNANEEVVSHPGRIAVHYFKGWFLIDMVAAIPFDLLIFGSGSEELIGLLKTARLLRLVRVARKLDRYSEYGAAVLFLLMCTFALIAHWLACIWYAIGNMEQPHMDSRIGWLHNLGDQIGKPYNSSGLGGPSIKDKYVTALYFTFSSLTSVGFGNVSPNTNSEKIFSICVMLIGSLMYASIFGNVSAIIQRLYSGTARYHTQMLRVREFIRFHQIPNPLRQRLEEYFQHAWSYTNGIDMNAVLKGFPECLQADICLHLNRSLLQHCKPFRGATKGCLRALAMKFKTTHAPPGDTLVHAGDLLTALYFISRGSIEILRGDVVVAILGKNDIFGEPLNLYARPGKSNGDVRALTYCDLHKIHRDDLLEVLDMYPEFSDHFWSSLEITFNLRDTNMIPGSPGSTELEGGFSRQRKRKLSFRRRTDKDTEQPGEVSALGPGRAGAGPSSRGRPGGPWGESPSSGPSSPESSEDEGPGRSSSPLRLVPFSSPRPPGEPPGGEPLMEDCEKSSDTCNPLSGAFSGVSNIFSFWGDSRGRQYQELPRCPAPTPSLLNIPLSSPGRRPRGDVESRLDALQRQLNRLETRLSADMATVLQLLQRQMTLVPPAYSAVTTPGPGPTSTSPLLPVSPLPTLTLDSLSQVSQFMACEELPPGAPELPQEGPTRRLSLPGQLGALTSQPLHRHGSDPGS
Description: (§4) QPatch HTX system (Sophion Biosciences A/S, Ballerup, Denmark) was used to examine hERG signaling (Cyprotex, Watertown, MA, USA). The system was primed with appropriate extracellular (NaCl, KCl, CaCl2, MgCl2, D-glucose, HEPES, pH 7.4) and intracellular (KCl, MgCl2, EGTA, MgATP, HEPES, pH 7.2) solutions before conducting the study in a 48 well plate (QPlate, Sophion Biosciences A/S, Ballerup, Denmark). All cell suspensions, buffers, and test compound solutions were kept at room temperature during the experiment. HEK293 cells stably transfected with hERG cDNA were washed and positioned into each well (recording chamber) of the QPlate. The QPatch system follows the general principles of conventional whole-cell patch-clamping: a high resistance seal is formed between the patch electrode, and an individual cell, the membrane across the electrode tip is then ruptured, and the whole-cell patch-clamp configuration is established. The standard voltage profile was as follows: step from -80 mV to –50 mV for 200 ms, +20 mV for 4.8 s, step to -50 mV for 5 s, then stepped to the holding potential of -80 mV. The step from -80 mV to the test command (+20 mV) results in an outward current (i.e., current flows out of the cell), and the step from the test command (+20 mV) to -50 mV results in the tail current (the tail current represents deactivation of the current overtime). Compound dilutions were prepared by diluting a DMSO solution (default 10 mM), followed by dilution into an extracellular buffer such that the final concentrations tested were 0.1, 1, and 10 μM (final DMSO concentration 0.1%). Perfusion solutions contained 0.05% Pluronic F-68 and were stored at room temperature for the duration of the experiment each day. The voltage protocol was run and recorded continuously during the experiment. Cells were treated with a vehicle for 3 min (i.e., 0.1% DMSO) followed by three increasing test substance concentrations (0.1, 1, and 10 μM). The test compounds were applied in triplicate at each concentration and tested in at least 2 cells (biological replicates). […]

HKC cells = experiment: Immortalized cell line toxicity (WST-1), HKC; type: cell-based, human; settings: HKC kidney cell line, 24 h
Experimental: (§1) A hepatic cell line (HepG2), lung carcinoma cell line (A549), and kidney cell line (HKC) were used to test the cytotoxicity of investigational compounds. Cells were grown in DMEM (ThermoFisher Scientific, Waltham, MA, USA) supplemented with 10% fetal bovine serum (FBS) (ThermoFisher Scientific, Waltham, MA, USA) and 1% penicillin/streptomycin (ThermoFisher Scientific, Waltham, MA, USA) and maintained at 37°C in 5% CO2. 2.5x10^4 cells in 100 μL of DMEM with 10% FBS were added to wells of 96-well plates 24 h prior to the experiments. Compounds were serially diluted in […], and 100 μL antibiotic-free DMEM was added to the monolayer and incubated at 37°C in 5% CO2 for 24 h. At 2 h before the end of the incubation period, 10 μL of 2-(4-iodophenyl)-3-(4-nitrophenyl)-5-(2, 4-disulfophenyl)-2H-tetrazolium (WST-1) solution (Roche, Mannheim, Germany) was added to each well. WST-1 reduction was monitored at 450 nm using a Vmax microplate reader. Assays were performed in triplicate, and the percentage survival was calculated by comparing the compound-treated wells to the DMSO vehicle control wells.

A549 cells = experiment: Immortalized cell line toxicity (WST-1), A549; type: cell-based, human; settings: A549 lung carcinoma cell line, 24 h
Experimental: as §1

[4] = Compound solubility in PBS; type: physicochemical; settings: aqueous buffer
Experimental: Compound solubility in PBS. Compound solubility was measured in PBS. Briefly, serial dilutions of test compounds were prepared in DMSO at 100x the final concentration. Test compound solutions were diluted 100-fold into PBS in a 96-well plate and mixed. After 2 h, the presence of precipitate was detected by measuring absorbance at 540 nm.

[5] = system: human primary hepatocytes; experiment: Human primary hepatocytes toxicity; type: cell-based; settings: 24 h, WST1
Experimental: Human primary hepatocytes toxicity. Cryopreserved human primary hepatocytes were purchased from the Cell Resource Core at Massachusetts General Hospital (Boston, MA, USA). Collagen sandwiched configuration was used to culture the thawed cells in 24-well plates. The 24-well plates were coated with rat tail collagen type I (Cell Recourse Core, MGH) and incubated for an hour before 4 x 10^5 live cells were plated and incubated at 37°C with 5% CO2 for 1 h to allow cells to attach to the collagen gel. After incubation, the medium was removed along with dead cells, and the remaining cells received 0.5 mL of hepatocyte culture medium containing Dulbecco’s modified Eagle’s medium (DMEM) media supplemented with 10% FBS, 0.5 U/mL insulin, 14 ng/mL glucagon, 20 ng/mL EGF, 7.5 µg/mL hydrocortisone and 200 U/mL penicillin-streptomycin. The cell cultures were incubated in a humidified, 5% CO2 incubator at 37°C. After 24 h, a top layer of collagen gel was poured over the hepatocytes attached to collagen on the bottom of the plate, making a sandwich model. After 1 h, investigational compounds at the designated concentrations were added and incubated for 24 h. Post incubation, hepatocyte WST1 (Roche, Basel, Switzerland) was added and incubated for 4 h. Cell staining was measured by recording the absorbance at 420 nm, measured using a Vmax microplate reader (Molecular Devices, San Jose, CA, USA.), and data were plotted using GraphPad Prism. Cells were tested in triplicate.

[6] = Immortalized cell line toxicity (WST-1), the three cell lines together; type: cell-based; settings: human, hkc, hepg2, a549 cells; read-out: toxicity to cell lines as multiple of the MIC
Experimental: as §1

S. aureus TrxR = S. aureus TrxR (Staphylococcus aureus, UniProt P66011); experiment: TrxR (TrxB) enzymatic assay, DTNB to TNB conversion
Chain of S. aureus TrxR (P66011 whole entry): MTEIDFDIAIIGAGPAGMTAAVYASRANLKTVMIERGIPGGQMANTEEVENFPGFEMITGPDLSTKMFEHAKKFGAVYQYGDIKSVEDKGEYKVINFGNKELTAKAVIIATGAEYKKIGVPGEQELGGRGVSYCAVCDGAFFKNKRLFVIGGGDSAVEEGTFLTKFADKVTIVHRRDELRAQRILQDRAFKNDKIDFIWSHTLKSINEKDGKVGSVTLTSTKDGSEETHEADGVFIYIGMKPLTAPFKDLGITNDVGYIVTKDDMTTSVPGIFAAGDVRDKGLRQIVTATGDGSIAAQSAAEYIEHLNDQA
Experimental: TrxR specific inhibitory activity was evaluated using 40 μL of S. aureus TrxR enzyme (0.5 μg/μL) per 200 mL of the reaction mixture for 15 minutes, comparing auranofin to other sulfur-containing compounds (all tested at 10 μg/mL), including known anti-S. aureus compounds.
For the screening assay, diluted TrxR assay buffer (Cayman Chemical, Ann Arbor, MI) (100 μL) was mixed with the investigational compounds (20 μL) in a 96 well-plate format and combined with Sa-TrxB (40 μL; 0.5 μg/mL), DTNB (20 μL) and NADPH (20 μL). The reaction entailed combining NADPH and Sa-TrxB with DTNB, which was converted to TNB, producing a yellow color.

[7] = Compound solubility in DMSO; type: physicochemical; settings: organic solvent or mixture, turbidity at 540 nm, read-out: concentration up to which the compound remained soluble in DMSO
Experimental: To test compound solubility, stock solutions were made in triplicate at 50 mg/mL in DMSO. Two-fold serial dilutions of the test compounds were prepared at 50 μL volume in a 96-well assay plate and were kept in the incubator for 1 h. After incubation, the absorbance was measured at 540 nm using a Vmax microplate reader (Molecular Devices, Sunnyvale, CA, USA.) to detect turbidity.

HepG2 cells = experiment: Immortalized cell line toxicity (WST-1), HepG2; type: cell-based, human; settings: HepG2 liver cell line, 24 h
Experimental: as §1

A. baumannii 17978 = experiment: Broth microdilution MIC, A. baumannii; type: cell-based, Acinetobacter baumannii; settings: A. baumannii 17978
Experimental: (§2) In vitro antibiotic susceptibilities were determined using the broth microdilution assay established by the Clinical and Laboratory Standards Institute ([Clinical and Laboratory Standards Institute, 2012]). Broth microdilution assays were carried out with 2 biological replicates, each in triplicate, Mueller–Hinton broth (MHB; BD Biosciences, Franklin Lakes, NJ, USA) with a total assay volume of 100 μL in 96-well plates (BD Biosciences, Franklin Lakes, NJ, USA). Two-fold serial dilutions of compounds were prepared at a range of 0.01– 64 μg/mL in 50 μL of MHB. The initial bacterial inoculum was adjusted to OD600 0.06, 50 μL was, added to the test compounds, and then incubated at 35°C for 18 h. Post incubation, OD600 was measured using a Vmax microplate reader (Molecular Devices, San Jose, CA), and the lowest concentration of test compound that suppressed bacterial growth was reported as the MIC. Broth culture from the MIC assay (10 μL) was plated on Mueller–Hinton agar (BD Biosciences, Franklin Lakes, NJ, USA), and colony-forming units (CFUs) were enumerated after overnight incubation at 37°C.

Enterobacter (EAE 2625) = experiment: Broth microdilution MIC, Enterobacter; type: cell-based, Enterobacter spp.; settings: Enterobacter (EAE 2625)
Experimental: as §2

P. aeruginosa PA14 = experiment: Broth microdilution MIC, P. aeruginosa; type: cell-based, Pseudomonas aeruginosa; settings: P. aeruginosa PA14
Experimental: as §2

[8] = system: S. aureus MW2 biofilm formation; experiment: Biofilm formation inhibition; type: cell-based, Staphylococcus aureus; settings: 24 h, Alamar Blue
Experimental: (§3) Diluted bacterial cells were added to 100 μL of test compounds (serially diluted 16 to 0 μg/mL) and incubated for 24 h to assess the biofilm formation inhibition. For the disruption of matured biofilm, diluted cells in 100 μL were added to the 96-well plate and incubated for 24 h with no agitation. […] Biofilm assays were completed in triplicate.

S. aureus MW2 [9] = experiment: Diamide assay (CFU reduction); type: cell-based, Staphylococcus aureus; settings: compound 0.5 μg/mL + 5 mM diamide, 3 h
Experimental: An overnight culture of S. aureus MW2 was inoculated in tryptic soy broth (TSB) media and grown with agitation. The cells were centrifuged, washed with PBS, and diluted to an OD600 0.4 (10^8 CFU/mL) in PBS. The cells were then treated with auranofin (0.5 µg/mL), AU1 (0.5 µg/mL), AU5 (0.5 µg/mL), and diamide (5 mM and 10 mM) alone or in combinations for 3 h at 37°C. The cells were then serially diluted and plated on tryptic soy agar (TSA) media and incubated at 37°C for 24 h. Colonies that grew on plates were enumerated to determine the effect of the drug and diamide on S. aureus.

S. aureus MW2 [10] = experiment: Broth microdilution MIC, S. aureus MW2; type: cell-based, Staphylococcus aureus; settings: S. aureus MW2 (MRSA), broth microdilution, 18 h
Experimental: as §2

K. pneumoniae ATCC 77326 = experiment: Broth microdilution MIC, K. pneumoniae; type: cell-based, Klebsiella pneumonia; settings: K. pneumoniae ATCC 77326
Experimental: as §2

H. pylori 49503 = experiment: Broth microdilution MIC, H. pylori; type: cell-based, Helicobacter pylori; settings: H. pylori 49503
Experimental: as §2

E. faecium ATCC E007 = experiment: Broth microdilution MIC, E. faecium; type: cell-based, Enterococcus faecium; settings: E. faecium ATCC E007
Experimental: as §2

[11] = parameters: method as in Kean et al., 1997; settings: auranofin-treated patients ref Kean et al., 1997; cited from earlier work
hERG channel [12] = target: T1, hERG channel
Description: as §4

mature S. aureus biofilm = experiment: Disruption of mature biofilm; type: cell-based, Staphylococcus aureus; settings: preformed 24 h biofilm, Alamar Blue
Experimental: as §3

[13] = system: intracellular free thiols of S. aureus MW2; experiment: Thiol depletion assay; type: cell-based, Staphylococcus aureus; settings: treated vs untreated cell lysate
Experimental: S. aureus MW2 was treated for 15 min with the indicated (0.125, 0.25, 0.5, or 0.75 µg/mL) concentrations of auranofin, AU1, AU5, or ampicillin. After treatment bacteria were washed twice in PBS and then resuspended in 100 mM potassium phosphate, monobasic, pH 7.4, containing 1 mM ethylenediaminetetraacetic acid to promote lysis. Cells were incubated in the lysis solution for 30 min at 60°C and then vortexed briefly. The solution was centrifuged at 13,000 g for 10 min to collect cell debris. Lysate was collected and 50 μL was transferred to a 96-well plate. Thiols were quantified using the Fluorometric Thiol assay kit following the manufacturer’s instructions (Millipore Sigma, St. Louis, MO, USA). The fluorescence intensity was measured after a 30 min incubation time at λex = 490/λem = 535 nm using a Vmax plate reader.

## CC(C)(C)c1ccc([S-])cc1.CCP(CC)CC.[Au+] [AU1]
[1]
  LD50: 1.5 µg/mL
  LD50 as multiple of the MIC: 12 X MIC
S. aureus MW2 [2]
  bactericidal versus bacteriostatic nature (time-to-kill kinetics): bacteriostatic
Human erythrocytes
  hemolysis (in words): did not cause hemolysis within the tested range
hERG channel [3]
  IC50: > 10 µM
HKC cells
  LD50: < 2 µg/mL
A549 cells
  LD50: approximately 4 μg/mL
[4]; PBS, 2 Hour, highest concentration with no detectable precipitate, read-out: Solubility Limit
  solubility at 2 h: 3.13 µM
[4]; pbs, read-out: Solubility in PBS converted to mass concentration
  solubility at 2 h: 1.49 µg/mL
[5]
  LD50: approximately 3 μg/mL
[6]
  selectivity ratio at 24 h: 16 to 32
S. aureus TrxR
  IC50: 0.5 µM
[7]
  solubility at 1 h: ≥ 50 µg/mL
HepG2 cells
  LD50: approximately 3 μg/mL

## CC(=O)OC[C@H]1O[C@@H]([S-])[C@H](OC(C)=O)[C@@H](OC(C)=O)[C@@H]1OC(C)=O.CCP(CC)CC.[Au+] [Auranofin]
A. baumannii 17978
  MIC: 32 µg/mL
Enterobacter (EAE 2625)
  MIC: >32 µg/mL
[1]
  LD50 as multiple of the MIC: 6 X MIC
P. aeruginosa PA14
  MIC: >32 µg/mL
[8]
  concentration that inhibited biofilm formation (P<0.01): 0.125 µg/mL
S. aureus MW2 [9]
  log CFU reduction in combination with diamide: 2.1 log CFU
S. aureus MW2 [10]
  MIC: 0.25 µg/mL
K. pneumoniae ATCC 77326
  MIC: >32 µg/mL
H. pylori 49503
  MIC: 0.25 µg/mL
[5]
  LD50: approximately 8 μg/mL
E. faecium ATCC E007
  MIC: 0.5 µg/mL
[11]
  patients with proteinuria: 5%
S. aureus TrxR; DTNB to TNB conversion
  TrxR enzymatic inhibitory activity (in words): Measurable activity reduction
S. aureus TrxR; subscreen, after a 30 min incubation period, DMSO 0.483 ± 0.121
  OD420 in TrxR enzymatic assay: 0.295 ± 0.012
hERG channel [12]
  IC50: 9.68 µM
Mature S. aureus biofilm
  concentration that significantly reduced mature biofilm: 0.125 µg/mL
[13]
  impact on free thiols (in words): a reduction was observed
